Results from PubChem BioAssay AID2060626 (Molecular Pharmacology Branch, DTP, NCI, 2025).
Values joined by “and” are separate entries in the source; they are usually repeats but may differ in a detail not shown here. Equal entries are not always repeated. One block for each compound: values may come before it.

Test system: 168753-222-R-J1-PDC complex spheroid viability
Assay: Anticancer human tumor 168753-222-R-J1-PDC patient-derived bladder carcinoma cell line growth inhibition [CLK]
Conditions: for viability, T/C: stronger effect = lower value
Procedure, shortened: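 Patient-derived tumor cells grown as complex spheroids with HUVEC endothelial cells and mesenchymal stem cells, treated with drug combinations. Concentrations descend in half-log steps from near clinical Cmax, or from 10 microM if Cmax unknown.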

[1] = curve of first compound, second compound 0.0316 µM
[2] = curve of first compound, second compound 0.1 µM
[3] = curve of first compound, second compound 0.316 µM
[4] = curve of first compound, second compound 1 µM
[5] = curve of first compound, second compound 3.16 µM
[6] = curve of first compound, second compound 10 µM
[7] = second compound 0.0316 µM, first compound 0.0316 µM
[8] = second compound 0.0316 µM, first compound 0.1 µM
[9] = second compound 0.0316 µM, first compound 0.316 µM
[10] = second compound 0.0316 µM, first compound 1 µM
[11] = second compound 0.0316 µM, first compound 3.16 µM
[12] = second compound 0.0316 µM, first compound 10 µM
[13] = second compound 0.1 µM, first compound 0.0316 µM
[14] = second compound 0.1 µM, first compound 0.1 µM
[15] = second compound 0.1 µM, first compound 0.316 µM
[16] = second compound 0.1 µM, first compound 1 µM
[17] = second compound 0.1 µM, first compound 3.16 µM
[18] = second compound 0.1 µM, first compound 10 µM
[19] = second compound 0.316 µM, first compound 0.0316 µM
[20] = second compound 0.316 µM, first compound 0.1 µM
[21] = second compound 0.316 µM, first compound 0.316 µM
[22] = second compound 0.316 µM, first compound 1 µM
[23] = second compound 0.316 µM, first compound 3.16 µM
[24] = second compound 0.316 µM, first compound 10 µM
[25] = second compound 1 µM, first compound 0.0316 µM
[26] = second compound 1 µM, first compound 0.1 µM
[27] = second compound 1 µM, first compound 0.316 µM
[28] = second compound 1 µM, first compound 1 µM
[29] = second compound 1 µM, first compound 3.16 µM
[30] = second compound 1 µM, first compound 10 µM
[31] = second compound 3.16 µM, first compound 0.0316 µM
[32] = second compound 3.16 µM, first compound 0.1 µM
[33] = second compound 3.16 µM, first compound 0.316 µM
[34] = second compound 3.16 µM, first compound 1 µM
[35] = second compound 3.16 µM, first compound 3.16 µM
[36] = second compound 3.16 µM, first compound 10 µM
[37] = second compound 10 µM, first compound 0.0316 µM
[38] = second compound 10 µM, first compound 0.1 µM
[39] = second compound 10 µM, first compound 0.316 µM
[40] = second compound 10 µM, first compound 1 µM
[41] = second compound 10 µM, first compound 3.16 µM
[42] = second compound 10 µM, first compound 10 µM
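Also: viability measured after seven days of drug exposure.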
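For viability, T/C in this document: luminescence signal used as surrogate for viable cell amount; 100% = DMSO vehicle control wells.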

Compound: O=C(c1cc(Cc2n[nH]c(=O)c3ccccc23)ccc1F)N1CCN(C(=O)C2CC2)CC1 + CN1CCN(c2cc(C(=O)Nc3cc4cc(-c5cnn(C)c5)ccc4cn3)ccn2)CC1
IC50 [1]: > 10 µM
IC50 [2]: 0.424 µM
IC50 [3]: < 0.0316 µM
IC50 [4]: < 0.0316 µM
IC50 [5]: < 0.0316 µM
IC50 [6]: < 0.0316 µM
viability, T/C [7]: 73.3%
viability, T/C [8]: 75.6%
viability, T/C [9]: 72.5%
viability, T/C [10]: 88.2%
viability, T/C [11]: 73.6%
viability, T/C [12]: 77.8%
viability, T/C [13]: 45.6%
viability, T/C [14]: 67.2%
viability, T/C [15]: 52.5%
viability, T/C [16]: 40.3%
viability, T/C [17]: 31.5%
viability, T/C [18]: 40.1%
viability, T/C [19]: 10.2%
viability, T/C [20]: 8.85%
viability, T/C [21]: 8.61%
viability, T/C [22]: 7.84%
viability, T/C [23]: 9.11%
viability, T/C [24]: 10.2%
viability, T/C [25]: 0.19%
viability, T/C [26]: 0.34%
viability, T/C [27]: 0.16%
viability, T/C [28]: 0.63%
viability, T/C [29]: 0.66%
viability, T/C [30]: 0.35%
viability, T/C [31]: 0.24%
viability, T/C [32]: 0.12%
viability, T/C [33]: 0.18%
viability, T/C [34]: 0.08%
viability, T/C [35]: 0.96%
viability, T/C [36]: 0.39%
viability, T/C [37]: 0.6%
viability, T/C [38]: 0.32%
viability, T/C [39]: 0.35%
viability, T/C [40]: 0.18%
viability, T/C [41]: 0.41%
viability, T/C [42]: 1.31%

IC50 (curve of compound): > 10 µM
Compound: CC(CO)NC(=O)c1cc(-c2ccc(Cl)cc2)nn(-c2cnn(C)c2)c1=O (stereo not drawn)
viability, T/C (compound 0.0316 µM): 105% and 101%
viability, T/C (compound 0.1 µM): 105% and 90.6%
viability, T/C (compound 0.316 µM): 94.4% and 95.7%
viability, T/C (compound 1 µM): 94.6% and 100%
viability, T/C (compound 3.16 µM): 92.7% and 107%
viability, T/C (compound 10 µM): 89.6% and 82.1%

Compound: COC1C=CCC(C)C(C)S(=O)(=O)NC(=O)c2ccc3c(c2)N(CC2CCC21)CC1(CCCc2cc(Cl)ccc21)CO3 (stereo not drawn) + CN1CCN(c2cc(C(=O)Nc3cc4cc(-c5cnn(C)c5)ccc4cn3)ccn2)CC1
IC50 [1]: 0.936 µM
IC50 [2]: 0.191 µM
IC50 [3]: < 0.0316 µM
IC50 [4]: < 0.0316 µM
IC50 [5]: < 0.0316 µM
IC50 [6]: < 0.0316 µM
viability, T/C [7]: 77.2%
viability, T/C [8]: 101%
viability, T/C [9]: 68.9%
viability, T/C [10]: 48.4%
viability, T/C [11]: 27.6%
viability, T/C [12]: 14.2%
viability, T/C [13]: 67.5%
viability, T/C [14]: 58.4%
viability, T/C [15]: 43.9%
viability, T/C [16]: 21.8%
viability, T/C [17]: 18%
viability, T/C [18]: 12.6%
viability, T/C [19]: 17.1%
viability, T/C [20]: 12.4%
viability, T/C [21]: 13.3%
viability, T/C [22]: 8.91%
viability, T/C [23]: 9.07%
viability, T/C [24]: 3.48%
viability, T/C [25]: 0.33%
viability, T/C [26]: 3.47%
viability, T/C [27]: 0.21%
viability, T/C [28]: 0.82%
viability, T/C [29]: 2.3%
viability, T/C [30]: 1.79%
viability, T/C [31]: 0.17%
viability, T/C [32]: 0.15%
viability, T/C [33]: 3.67%
viability, T/C [34]: 0.12%
viability, T/C [35]: 0.15%
viability, T/C [36]: 0.59%
viability, T/C [37]: 0.4%
viability, T/C [38]: 0.21%
viability, T/C [39]: 2.52%
viability, T/C [40]: 0.21%
viability, T/C [41]: 0.23%
viability, T/C [42]: 1.62%

IC50 (curve of compound): 0.00211 µM and 0.00262 µM
Compound: CC(C)CC(NC(=O)C(Cc1ccccc1)NC(=O)c1cnccn1)B(O)O (stereo not drawn)
viability, T/C (compound 0.000949 µM): 84.2% and 86.5%
viability, T/C (compound 0.003 µM): 34.9% and 45.1%
viability, T/C (compound 0.00949 µM): 0.64% and 3.31%
viability, T/C (compound 0.03 µM): 1.34% and 1.82%
viability, T/C (compound 0.0949 µM): 0.77% and 0.3%
viability, T/C (compound 0.3 µM): 0.23% and 0.22%
